Molecular target: human PAD4 (hPAD4) (Homo sapiens, UniProt Q9UM07)
Assay: RFMS human PAD4 functional assay (rapid-fire mass spectrum)
Type: biochemical
Details: 5 nM hPAD4 enzyme, 250 μM BAEE, 50 μM Calcium; 30 min preincubation, 90 min reaction at 37° C.
In short: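 PAD4 (10 nM) preincubated 30 min with compound (top final 50 μM), then BAEE substrate added in pH 7.5 HEPES buffer with DTT, 50 μM calcium, TPEN; 90 min at 37° C. After TCA quench, citrulline derivatized with phenyl glyoxal (4 mM final, 30 min, 37° C) and quantified by RapidFire MS against internal standard.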

Sequence of human PAD4 (hPAD4) (Q9UM07 whole entry): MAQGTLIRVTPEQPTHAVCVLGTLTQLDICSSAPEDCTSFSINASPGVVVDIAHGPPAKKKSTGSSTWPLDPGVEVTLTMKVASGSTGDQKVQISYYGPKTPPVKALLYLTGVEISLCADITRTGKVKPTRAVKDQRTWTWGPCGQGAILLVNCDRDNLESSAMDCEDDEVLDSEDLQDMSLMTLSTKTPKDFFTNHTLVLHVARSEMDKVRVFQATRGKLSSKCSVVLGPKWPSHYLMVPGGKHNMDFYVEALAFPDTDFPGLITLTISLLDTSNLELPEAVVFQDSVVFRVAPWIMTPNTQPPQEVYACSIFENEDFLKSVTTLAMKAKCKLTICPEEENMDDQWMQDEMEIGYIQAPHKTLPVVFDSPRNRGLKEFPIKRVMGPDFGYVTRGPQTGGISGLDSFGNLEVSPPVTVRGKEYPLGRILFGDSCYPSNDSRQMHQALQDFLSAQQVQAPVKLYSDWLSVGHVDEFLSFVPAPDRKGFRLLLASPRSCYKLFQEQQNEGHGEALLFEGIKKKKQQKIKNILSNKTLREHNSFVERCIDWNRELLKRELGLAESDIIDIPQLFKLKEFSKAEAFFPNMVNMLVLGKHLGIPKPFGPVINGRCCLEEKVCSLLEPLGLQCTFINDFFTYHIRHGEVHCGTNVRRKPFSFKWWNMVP

| Compound | IC50 [nM] |
| --- | --- |
| COc1cc(C(=O)N2C[C@H]3CC[C@@H]2[C@@H]3N)cc2nc(-c3cc4ccccc4n3CC3CC3)n(Cc3cnn(C)c3)c12 [Example 242, (1R,4R,7R)-2-{2-[1-(cyclopropylmethyl)-1H-indol-2-yl]-7-methoxy-1-[(1-methyl-1H-pyrazol-4-yl)methyl]-1H-1,3-benzodiazole-5-carbonyl}-2-azabicyclo[2.2.1]heptan-7-amine] | 41 |
| COc1cccc(C(=O)N2CC(Cn3c(-c4cc5ccccc5n4CC4CC4)nc4cc(C(=O)N5C[C@H]6CC[C@@H]5[C@@H]6N)cc(OC)c43)C2)c1 [Example 158, (1R,4R,7R)-2-{2-[1-(cyclopropylmethyl)-1H-indol-2-yl]-7-methoxy-1-{[1-(3-methoxybenzoyl)azetidin-3-yl]methyl}-1H-1,3-benzodiazole-5-carbonyl}-2-azabicyclo[2.2.1]heptan-7-amine] | 23 |
| COc1cc(C(=O)N2C[C@H]3CC[C@@H]2[C@@H]3N)cc2nc(-c3cc4cccnc4n3CC3CC3)n(CC3CN(C(=O)c4ccncn4)C3)c12 [Example 111, (1R,4R,7R)-2-{2-[1-(cyclopropylmethyl)-1H-pyrrolo[2,3-b]pyridin-2-yl]-7-methoxy-1-{[1-(pyrimidine-4-carbonyl)azetidin-3-yl]methyl}-1H-1,3-benzodiazole-5-carbonyl}-2-azabicyclo[2.2.1]heptan-7-amine] | 51 |
| COc1cc(C(=O)N2C[C@H]3CC[C@@H]2[C@@H]3N)cc2nc(-c3cc4cccnc4n3CC3CC3)n(CC3CN(C(=O)c4ccc(Cl)nc4)C3)c12 [Example 120, (1R,4R,7R)-2-(1-{[1-(6-chloropyridine-3-carbonyl)azetidin-3-yl]methyl}-2-[1-(cyclopropylmethyl)-1H-pyrrolo[2,3-b]pyridin-2-yl]-7-methoxy-1H-1,3-benzodiazole-5-carbonyl)-2-azabicyclo[2.2.1]heptan-7-amine] | 73 |
| COc1cc(C(=O)N2CCC[C@@H](N)C2)cc2nc(-c3cc4cccnc4n3CC3CC3)n(CCNS(C)(=O)=O)c12 [Example 292, N-(2-{5-[(3R)-3-aminopiperidine-1-carbonyl]-2-[1-(cyclopropylmethyl)-1H-pyrrolo[2,3-b]pyridin-2-yl]-7-methoxy-1H-1,3-benzodiazol-1-yl}ethyl)methanesulfonamide] | 2060 |
| COc1cccc(-n2cc(Cn3c(-c4cc5ccccc5n4CC4CC4)nc4cc(C(=O)N5CC6CCC5[C@@H]6N)cc(OC)c43)cn2)n1 (stereo partly drawn) [Example 378, (7R)-2-{2-[1-(cyclopropylmethyl)-1H-indol-2-yl]-7-methoxy-1-{[1-(6-methoxypyridin-2-yl)-1H-pyrazol-4-yl]methyl}-1H-1,3-benzodiazole-5-carbonyl}-2-azabicyclo[2.2.1]heptan-7-amine] | 37 |
| COc1cc(C(=O)N2C[C@H]3CC[C@@H]2[C@@H]3N)cc2nc(-c3cc4ccccc4n3CC3CC3)n(CC3CN(C(=O)c4cccc(C(=O)O)c4)C3)c12 [Example 137, 3-[3-({5-[(1R,4R,7R)-7-amino-2-azabicyclo[2.2.1]heptane-2-carbonyl]-2-[1-(cyclopropylmethyl)-1H-indol-2-yl]-7-methoxy-1H-1,3-benzodiazol-1-yl}methyl)azetidine-1-carbonyl]benzoic acid] | 11 |
| COc1cc(C(=O)N2C[C@H](N)C[C@@H](F)C2)cc2nc(-c3cc4cccnc4n3CC3CC3)n(Cc3cnn(-c4cccc(Cl)n4)c3)c12 [Example 389, (3R,5R)-1-(1-{[1-(6-chloropyridin-2-yl)-1H-pyrazol-4-yl]methyl}-2-[1-(cyclopropylmethyl)-1H-pyrrolo[2,3-b]pyridin-2-yl]-7-methoxy-1H-1,3-benzodiazole-5-carbonyl)-5-fluoropiperidin-3-amine] | 43 |
| N[C@@H]1C2CCC1N(C(=O)c1cc(F)c3c(c1)nc(-c1cc4cccnc4n1CC1CC1)n3CC1CN(C(=O)c3ccccc3)C1)C2 (stereo partly drawn) [Example 439, (7R)-2-{1-[(1-benozylazetidin-3-yl)methyl]-2-[1-(cyclopropylmethyl)-1H-pyrrolo[2,3-b]pyridin-2-yl]-7-fluoro-1H-1,3-benzodiazol-5-carbonyl}-2-azabicyclo[2.2.1]heptan-7-amine] | 36 |
| COc1cc(C(=O)N2CC3CCC2[C@@H]3N)cc2nc(-c3csc4ccc(Cl)cc34)n(CC3CN(c4cncc(C#N)c4)C3)c12 (some centres unmarked) [Example 316] | 1150 |

Further molecules by falling IC50, results first:

| IC50 [nM] | Compound |
| --- | --- |
| 925 | COC(=O)NCCn1c(-c2cc3cccnc3n2CC2CC2)nc2cc(C(=O)N3C[C@H]4CC[C@@H]3[C@@H]4N)cc(OC)c21 [Example 284, methyl N-(2-{5-[(1R,4R,7R)-7-amino-2-azabicyclo[2.2.1]heptane-2-carbonyl]-2-[1-(cyclopropylmethyl)-1H-pyrrolo[2,3-b]pyridin-2-yl]-7-methoxy-1H-1,3-benzodiazol-1-yl}ethyl)carbamate] |
| 44 | COc1cc(C(=O)N2C[C@H]3CC[C@@H]2[C@@H]3N)cc2nc(-c3cc4ccccc4n3CC3CC3)n(Cc3cnn(Cc4ccccc4)c3)c12 [Example 259, (1R,4R,7R)-2-{1-[(1-benzyl-1H-pyrazol-4-yl)methyl]-2-[1-(cyclopropylmethyl)-1H-indol-2-yl]-7-methoxy-1H-1,3-benzodiazole-5-carbonyl}-2-azabicyclo[2.2.1]heptan-7-amine] |
| 41 | COc1cc(C(=O)N2C[C@H](N)C[C@@H](F)C2)cc2nc(-c3cc4ccccc4n3CC3CC3)n(Cc3cnn(C)c3)c12 [Example 257, (3R,5R)-1-{2-[1-(cyclopropylmethyl)-1H-indol-2-yl]-7-methoxy-1-[(1-methyl-1H-pyrazol-4-yl)methyl]-1H-1,3-benzodiazole-5-carbonyl}-5-fluoropiperidin-3-amine] |
| 34 | COc1cc(C(=O)N2CC3CCC2[C@@H]3N)cc2nc(-c3cc4ccc(C(C)O)cc4n3CC3CC3)n(CC3CN(C(=O)c4ccc(C#N)cc4)C3)c12 (stereo partly drawn) [Example 523, 4-[3-({5-[(7R)-7-amino-2-azabicyclo[2.2.1]heptane-2-carbonyl]-2-[1-(cyclopropylmethyl)-6-(1-hydroxyethyl)-1H-indol-2-yl]-7-methoxy-1H-1,3-benzodiazol-1-yl}methyl)azetidine-1-carbonyl]benzonitrile] |
| 28 | COc1cc(C(=O)N2C[C@H]3CC[C@@H]2[C@@H]3N)cc2nc(-c3cc4ccccc4n3CC3CC3)n(CC3CN(c4cncc(C#N)n4)C3)c12 [Example 65, 6-[3-({5-[(1R,4R,7R)-7-amino-2-azabicyclo[2.2.1]heptane-2-carbonyl]-2-[1-(cyclopropylmethyl)-1H-indol-2-yl]-7-methoxy-1H-1,3-benzodiazol-1-yl}methyl)azetidin-1-yl]pyrazine-2-carbonitrile] |
| 23 | COc1cc(C(=O)N2CC3CCC2[C@@H]3N)cc2nc(-c3cc4ccccc4n3CC3CC3)n(Cc3cnn(C)c3C)c12 (stereo partly drawn) [Example 482, (7R)-2-{2-[1-(cyclopropylmethyl)-1H-indol-2-yl]-1-[(1,5-dimethyl-1H-pyrazol-4-yl)methyl]-7-methoxy-1H-1,3-benzodiazole-5-carbonyl}-2-azabicyclo[2.2.1]heptan-7-amine] |
| 16 | N[C@@H]1[C@@H]2CC[C@H]1N(C(=O)c1cc(Cl)c3c(c1)nc(-c1cc4ccccc4n1CC1CC1)n3CC1CN(C(=O)c3ccncc3)C1)C2 [Example 93, (3-((5-((1R,4R,7R)-7-amino-2-azabicyclo[2.2.1]heptane-2-carbonyl)-7-chloro-2-(1-(cyclopropylmethyl)-1H-indol-2-yl)-1H-benzo[d]imidazol-1-yl)methyl)azetidin-1-yl)(pyridin-4-yl)methanone] |
